We go through 28 compounds from patent US20030199692A1, “Propanoic acid derivatives that inhibit the binding of integrins to their receptors” (priority 1999, published 2003).

The experiment addresses T1, α4β1 integrin (Homo sapiens, UniProt P05556+P13612).
T1 construct: endogenous in cells; host or cells: Ramos cells
Description: Inhibition of adhesion of calcein AM-labeled Ramos cells to CS1 (fibronectin) peptide-conjugated ovalbumin. It counts as cell-based. To be noted: Table 4; Ramos cell adhesion to CS1-conjugated ovalbumin, 30 minutes at 37° C. How it is done:
The ability of compounds of the present invention to inhibit binding is determined by a procedure in which a 26-amino acid peptide containing the CS1 sequence of fibronectin with an N-terminal Cys ([…]) was coupled to maleimide activated ovalbumin. Bovine serum albumin (BSA) and CS1 conjugated ovalbumin were coated onto 96-well polystyrene plates at 0.5 mg/ml in TBS (50 mM Tris, pH 7.5; 150 mM NaCl) at 4° C. for 16 hours. The plates were washed three times with TBS and blocked with TBS containing 3% BSA at room temperature for 4 hours. Blocked plates were washed three times in binding buffer (TBS; 1 mM MgCl2; 1 mM CaCl2; 1 mM MnCl2) prior to assay. Ramos cells fluorescently labeled with calcein AM were resuspended in binding buffer (10^7 cells/ml) and diluted 1:2 with same buffer with or without compound. The cells were added immediately to the wells (2.5×10^5 cells/well) and incubated for 30 minutes at 37° C. Following three washes with binding buffer, adherent cells were lysed and quantitated using a fluorometer. IC50 is defined as the dose required to give 50% inhibition. MS in Table 3 stands for Mass Spec. nd stands for not determined in the Tables. A stands for inhibition in Table 2, and the percent inhibition indicates the inhibition of cell adhesion when compound is included in the assay at a concentration of 100 μM. The lower the IC50 value and the greater the percentage of inhibition, the more efficient the compound is at prevention of cell adhesion.

T1 sequence (P13612 34-1032): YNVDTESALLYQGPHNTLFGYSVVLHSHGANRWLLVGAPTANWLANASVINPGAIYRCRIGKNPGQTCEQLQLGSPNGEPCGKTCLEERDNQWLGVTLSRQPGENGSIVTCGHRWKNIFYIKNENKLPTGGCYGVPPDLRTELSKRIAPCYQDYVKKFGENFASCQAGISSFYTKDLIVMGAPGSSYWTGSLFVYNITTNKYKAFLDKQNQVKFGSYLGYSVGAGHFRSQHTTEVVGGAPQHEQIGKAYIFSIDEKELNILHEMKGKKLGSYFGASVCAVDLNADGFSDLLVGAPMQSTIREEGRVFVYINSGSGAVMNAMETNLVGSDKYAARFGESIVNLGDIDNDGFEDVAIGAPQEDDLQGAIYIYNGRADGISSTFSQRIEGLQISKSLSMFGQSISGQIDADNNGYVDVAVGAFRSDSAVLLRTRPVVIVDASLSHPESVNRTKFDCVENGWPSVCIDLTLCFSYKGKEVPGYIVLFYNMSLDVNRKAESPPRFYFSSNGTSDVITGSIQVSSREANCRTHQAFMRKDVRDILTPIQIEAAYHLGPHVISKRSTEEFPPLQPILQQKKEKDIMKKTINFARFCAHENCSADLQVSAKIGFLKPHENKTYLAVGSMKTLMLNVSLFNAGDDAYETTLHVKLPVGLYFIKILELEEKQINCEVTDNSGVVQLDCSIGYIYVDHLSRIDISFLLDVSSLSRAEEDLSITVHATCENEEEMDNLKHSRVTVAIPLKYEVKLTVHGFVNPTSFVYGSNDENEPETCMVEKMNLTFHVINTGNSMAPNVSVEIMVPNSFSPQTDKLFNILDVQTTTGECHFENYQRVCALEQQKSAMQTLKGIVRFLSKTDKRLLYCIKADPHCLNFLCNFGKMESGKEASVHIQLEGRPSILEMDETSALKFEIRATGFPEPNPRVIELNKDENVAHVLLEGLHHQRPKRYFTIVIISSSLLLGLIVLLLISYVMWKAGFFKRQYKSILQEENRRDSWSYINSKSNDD
T1 sequence (P05556 21-798): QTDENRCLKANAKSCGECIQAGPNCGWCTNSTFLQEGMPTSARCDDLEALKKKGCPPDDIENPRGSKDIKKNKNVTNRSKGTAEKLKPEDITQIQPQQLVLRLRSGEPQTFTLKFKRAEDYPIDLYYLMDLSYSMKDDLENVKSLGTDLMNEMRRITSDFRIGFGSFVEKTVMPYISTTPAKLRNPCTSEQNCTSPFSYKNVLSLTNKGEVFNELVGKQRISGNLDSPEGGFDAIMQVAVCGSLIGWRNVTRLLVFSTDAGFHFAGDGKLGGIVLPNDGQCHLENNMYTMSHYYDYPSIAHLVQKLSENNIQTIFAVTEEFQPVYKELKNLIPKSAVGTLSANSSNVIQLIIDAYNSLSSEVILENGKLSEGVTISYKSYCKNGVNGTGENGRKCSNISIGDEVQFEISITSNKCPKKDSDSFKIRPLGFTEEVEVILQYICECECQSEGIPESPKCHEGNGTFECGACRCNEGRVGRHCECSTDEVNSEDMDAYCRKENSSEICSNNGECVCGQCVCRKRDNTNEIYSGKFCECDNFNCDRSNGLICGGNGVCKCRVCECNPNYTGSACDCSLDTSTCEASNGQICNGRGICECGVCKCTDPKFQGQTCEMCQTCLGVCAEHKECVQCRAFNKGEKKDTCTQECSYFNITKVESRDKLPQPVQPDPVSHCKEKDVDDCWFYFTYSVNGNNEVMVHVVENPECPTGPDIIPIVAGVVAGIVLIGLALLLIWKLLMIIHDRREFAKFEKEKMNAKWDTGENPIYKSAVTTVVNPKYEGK

Regarding `CCCCC(C(=O)N[C@@H](CC(=O)O)c1ccc2c(c1)CCC2)n1cc(C)cc(Cc2ccc3ccccc3c2)c1=O` (stereo partly drawn) [(3S)-3-(2,3-dihydro-1H-inden-5-yl)-3-({2-[5-methyl-3-(2-naphthalenylmethyl)-2-oxo-1(2H)-pyridinyl]hexanoyl}amino)propanoic acid], the 50% inhibitory concentration (IC50) (commonly the midpoint of a concentration-inhibition curve) was 283 nM.

For the compound `CCCCC(C(=O)N[C@@H](CC(=O)O)c1cccc(F)c1)n1cc(C)cc(Cc2ccccc2)c1=O` (stereo partly drawn) [(3S)-3-(3-fluorophenyl)-3-({2-[5-methyl-2-oxo-3-(phenylmethyl)-1(2H)-pyridinyl]hexanoyl}amino)propanoic acid], the 50% inhibitory concentration (IC50) was 13 nM.

Take `CCCCC(C(=O)N[C@@H](CC(=O)O)c1cccc(OC(C)C)c1)n1ccc(CCc2ccccc2)cc1=O` (stereo partly drawn) [(3S)-3-(3-isopropoxyphenyl)-3-({2-[2-oxo-4-(2-phenylethyl)pyridin-1(2H)-yl]hexanoyl}amino)propanoic acid]: the IC50 is 95 nM. For `CCCCC(C(=O)N[C@@H](CC(=O)O)c1cccc(OC(C)C)c1)n1cc(C)cc(Cc2ccccc2OC)c1=O` (stereo partly drawn) [(3S)-3-(3-isopropoxyphenyl)-3-({2-[3-(2-methoxybenzyl)-5-methyl-2-oxopyridin-1(2H)-yl]hexanoyl}amino)propanoic acid], the 50% inhibitory concentration (IC50) was 4 nM. The result for `CCCCC(C(=O)N[C@@H](CC(=O)O)c1ccc(CC)cc1)n1cc(C)cc(Cc2ccccc2)c1=O` (stereo partly drawn) [(3S)-3-(4-ethylphenyl)-3-({2-[5-methyl-2-oxo-3-(phenylmethyl)-1(2H)-pyridinyl]hexanoyl}amino)propanoic acid] reads 40 nM; that for `CCCCC(C(=O)N[C@@H](CC(=O)O)c1cccc(OC(C)C)c1)n1cc(C)cc(Cc2c(Cl)cccc2Cl)c1=O` (stereo partly drawn) [(3S)-3-({2-[3-(2,6-dichlorobenzyl)-5-methyl-2-oxopyridin-1(2H)-yl]hexanoyl}amino)-3-(3-isopropoxyphenyl)propanoic acid], 275 nM; that for `CCCCC(C(=O)N[C@@H](CC(=O)O)c1cccc(OC(C)C)c1)n1cc(C)cc(Cc2ccccc2Cl)c1=O` (stereo partly drawn) [(3S)-3-({2-[3-(2-chlorobenzyl)-5-methyl-2-oxopyridin-1(2H)-yl]hexanoyl}amino)-3-(3-isopropoxyphenyl)propanoic acid], 5 nM. The result for `CCCCC(C(=O)N[C@@H](CC(=O)O)c1ccc(C)cc1)n1cc(C)cc(Cc2ccccc2Cl)c1=O` (stereo partly drawn) [(3S)-3-({2-[3-(2-chlorobenzyl)-5-methyl-2-oxopyridin-1(2H)-yl]hexanoyl}amino)-3-(4-methylphenyl)propanoic acid] reads 15 nM. The result for `CCCCC(C(=O)N[C@@H](CC(=O)O)c1ccccc1)n1cc(C)cc(Cc2ccccc2Cl)c1=O` (stereo partly drawn) [(3S)-3-({2-[3-(2-chlorobenzyl)-5-methyl-2-oxopyridin-1(2H)-yl]hexanoyl}amino)-3-phenylpropanoic acid] reads 12 nM.

Consider `CCCCC(C(=O)N[C@@H](CC(=O)O)c1cccc(OC(C)C)c1)n1cc(C)cc(Cc2ccccc2OCC)c1=O` (stereo partly drawn) [(3S)-3-({2-[3-(2-ethoxybenzyl)-5-methyl-2-oxopyridin-1(2H)-yl]hexanoyl}amino)-3-(3-isopropoxyphenyl)propanoic acid], for which the half-maximal inhibitory concentration (IC50) is 19 nM. With `CCCCC(C(=O)N[C@@H](CC(=O)O)c1cccc(OC(C)C)c1)n1cc(C)cc(Cc2cccc(Cl)c2)c1=O` (stereo partly drawn) [(3S)-3-({2-[3-(3-chlorobenzyl)-5-methyl-2-oxopyridin-1(2H)-yl]hexanoyl}amino)-3-(3-isopropoxyphenyl)propanoic acid] the figure was 20 nM; with `CCCCC(C(=O)N[C@@H](CC(=O)O)c1cccc(OCCC)c1)n1cc(C)cc(Cc2cccc(Cl)c2)c1=O` (stereo partly drawn) [(3S)-3-({2-[3-(3-chlorobenzyl)-5-methyl-2-oxopyridin-1(2H)-yl]hexanoyl}amino)-3-(3-propoxyphenyl)propanoic acid], 23 nM. On to `CCCCC(C(=O)N[C@@H](CC(=O)O)c1cccc(OC(C)C)c1)n1cc(C)cc(Cc2cccc(Cl)c2Cl)c1=O` (stereo partly drawn) [(3S)-3-({2-[3-[(2,3-dichlorophenyl)methyl]-5-methyl-2-oxo-1(2H)-pyridinyl]hexanoyl}amino)-3-{3-[(1-methylethyl)oxy]phenyl}propanoic acid], for which the half-inhibitory concentration (IC50) is 68 nM. Turning to `CCCCC(C(=O)N[C@@H](CC(=O)O)c1cccc(OC(C)C)c1)n1cc(C)cc(Cc2ccc(F)cc2Cl)c1=O` (stereo partly drawn) [(3S)-3-({2-[3-[(2-chloro-4-fluorophenyl)methyl]-5-methyl-2-oxo-1(2H)-pyridinyl]hexanoyl}amino)-3-{3-[(1-methylethyl)oxy]phenyl}propanoic acid], the IC50 is 17 nM.

As for `CCCCC(C(=O)N[C@@H](CC(=O)O)c1cccc(OC(C)C)c1)n1cc(C)cc(Cc2c(Cl)cc(Cl)cc2OC)c1=O` (stereo partly drawn) [(3S)-3-({2-[3-{[2,4-dichloro-6-(methyloxy)phenyl]methyl}-5-methyl-2-oxo-1(2H)-pyridinyl]hexanoyl}amino)-3-{3-[(1-methylethyl)oxy]phenyl}propanoic acid], the IC50 is 275 nM. The result for `CCCCC(C(=O)N[C@@H](CC(=O)O)c1cccc(CC(C)C)c1)n1cc(C)cc(Cc2ccccc2)c1=O` (stereo partly drawn) [(3S)-3-({2-[5-methyl-2-oxo-3-(phenylmethyl)-1(2H)-pyridinyl]hexanoyl}amino)-3-[3-(2-methylpropyl)phenyl]propanoic acid] reads 10 nM; that for `CCCCC(C(=O)N[C@@H](CC(=O)O)c1ccccc1)n1cc(C)cc(Cc2cccc3ccccc23)c1=O` (stereo partly drawn) [(3S)-3-({2-[5-methyl-3-(1-naphthalenylmethyl)-2-oxo-1(2H)-pyridinyl]hexanoyl}amino)-3-phenylpropanoic acid], 350 nM. With `CCCCC(C(=O)N[C@@H](CC(=O)O)c1ccc(C)cc1)n1cc(C)cc(Cc2ccc3ccccc3c2)c1=O` (stereo partly drawn) [(3S)-3-({2-[5-methyl-3-(2-naphthalenylmethyl)-2-oxo-1(2H)-pyridinyl]hexanoyl}amino)-3-(4-methylphenyl)propanoic acid], the IC50 was 400 nM. With `CCCCC(C(=O)N[C@@H](CC(=O)O)c1ccccc1)n1cc(C)cc(Cc2ccc3ccccc3c2)c1=O` (stereo partly drawn) [(3S)-3-({2-[5-methyl-3-(2-naphthalenylmethyl)-2-oxo-1(2H)-pyridinyl]hexanoyl}amino)-3-phenylpropanoic acid] the figure was 30 nM; with `CCCCC(C(=O)N[C@@H](CC(=O)O)c1ccccc1)n1cc(C)cc(Cc2ccccc2C)c1=O` (stereo partly drawn) [(3S)-3-({2-[5-methyl-3-[(2-methylphenyl)methyl]-2-oxo-1(2H)-pyridinyl]hexanoyl}amino)-3-phenylpropanoic acid], 25 nM; with `CCCCC(C(=O)N[C@@H](CC(=O)O)c1cccc(-c2ccccc2)c1)n1cc(C)cc(Cc2ccccc2)c1=O` (stereo partly drawn) [(3S)-3-[1,1′-biphenyl]-3-yl-3-({2-[5-methyl-2-oxo-3-(phenylmethyl)-1(2H)-pyridinyl]hexanoyl}amino)propanoic acid], 250 nM.

On to `CCCCC(C(=O)N[C@@H](CC(=O)O)c1cccc(N(CC)CC)c1)n1cc(C)cc(Cc2ccccc2)c1=O` (stereo partly drawn) [(3S)-3-[3-(diethylamino)phenyl]-3-({2-[5-methyl-2-oxo-3-{phenylmethyl)-1(2H)-pyridinyl]hexanoyl}amino)propanoic acid], for which the IC50 is 10 nM. Turning to `CCCCC(C(=O)N[C@@H](CC(=O)O)c1cccc(C(F)F)c1)n1cc(C)cc(Cc2ccccc2)c1=O` (stereo partly drawn) [(3S)-3-[3-(difluoromethyl)phenyl]-3-({2-[5-methyl-2-oxo-3-(phenylmethyl)-1(2H)-pyridinyl]hexanoyl}amino)propanoic acid], the IC50 was 20 nM. Regarding `CCCCC(C(=O)N[C@@H](CC(=O)O)c1ccc(C(C)C)cc1)n1cc(C)cc(Cc2ccccc2)c1=O` (stereo partly drawn) [(3S)-3-[4-(1-methylethyl)phenyl]-3-({2-[5-methyl-2-oxo-3-(phenylmethyl)-1(2H)-pyridinyl]hexanoyl}amino)propanoic acid], the half-maximal inhibitory concentration (IC50) was 160 nM.

As to `Cc1cc(C(C(=O)N[C@@H](CC(=O)O)c2cccc(OC(C)C)c2)c2ccccc2)c(=O)n(Cc2ccccc2)c1` (stereo partly drawn) [(3S)-3-{3-[(1-methylethyl)oxy]phenyl}-3-({2-[5-methyl-2-oxo-1-(phenylmethyl)-1,2-dihydro-3-pyridinyl]-2-phenylacetyl}amino)propanoic acid], the 50% inhibitory concentration (IC50) was 10 nM. With `CCCCC(C(=O)N[C@@H](CC(=O)O)c1cccc(OC(C)C)c1)n1cc(C)cc(Cc2cccc3ccccc23)c1=O` (stereo partly drawn) [(3S)-3-{3-[(1-methylethyl)oxy]phenyl}-3-({2-[5-methyl-3-(1-naphthalenylmethyl)-2-oxo-1(2H)-pyridinyl]hexanoyl}amino)propanoic acid] the figure was 67 nM; with `CCCCC(C(=O)N[C@@H](CC(=O)O)c1cccc(OC(C)C)c1)n1cc(C)cc(Cc2ccc3ccccc3c2)c1=O` (stereo partly drawn) [(3S)-3-{3-[(1-methylethyl)oxy]phenyl}-3-({2-[5-methyl-3-(2-naphthalenylmethyl)-2-oxo-1(2H)-pyridinyl]hexanoyl}amino)propanoic acid], 20 nM; with `CCCCC(C(=O)N[C@@H](CC(=O)O)c1cccc(OC(C)C)c1)n1cc(C)cc(Cc2ccccc2C)c1=O` (stereo partly drawn) [(3S)-3-{3-[(1-methylethyl)oxy]phenyl}-3-({2-[5-methyl-3-[(2-methylphenyl)methyl]-2-oxo-1(2H)-pyridinyl]hexanoyl}amino)propanoic acid], 5 nM.
